# Values joined by “and” are separate entries in the source; they are usually repeats but may differ in a detail not shown here. Identical values can stand only once.
# Tested on: bovine embryos
# Test: Example 9: L-NAME (1 or 1000 nM) added to mBECM containing serum and Hb, pre-hatching development
# Assay type: cell-based
# Design: key to Least square mean of embryos developed to 16-cell / Least square mean of embryos developed to Blastocyst / Least square mean of embryos developed to 2-cell / Least square mean of embryos developed to 8-cell / Least square mean of embryos developed to Morula: fraction developed; each embryo scored 1 = developed, 0 = not developed
# Conditions: Hb 1 μg/ml, no L-NAME
# Protocol: The basic medium used for maturation of oocytes was tissue culture medium (TCM)-199 with Earle's salts, buffered with 25 mM HEPES (Gibco BRL, Grand Island, N.Y.) and supplemented with 10% (v/v) heat-inactivated fetal bovine serum (FBS; Hyclone Laboratories, Logan, Utah), 1 μg/ml estradiol-17β (NOBL Laboratories, Sioux Center, Iowa), 3 μg/ml bovine FSH (NOBL Laboratories), 6 μg/ml bovine LH (NOBL Laboratories), and 25 μg/ml gentamycin (Sigma Chemical Co., St. Louis, Mo.). The basic medium used for treatment of spermatozoa and fertilization of oocytes was a modified Tyrode's medium (J. Parrish et al., Capacitation of bovine sperm by heparin. Biol. Reprod. 38:1171-1180 (1988)), supplemented with 0.25 mM sodium pyruvate (Gibco BRL), 6 mg/ml fatty acid (FA)-free BSA (No. A-6003, Sigma), 15 μg/ml calcium heparin from porcine intestinal mucosa (183 USP/mg; H-8398, Sigma), and 25 μg/ml gentamycin. Modified bovine embryo culture medium (mBECM) containing 10 μM β-mercaptoethanol was used for culture of embryos, as described in J. Lim et al., “Roles of growth factors in the development of bovine embryos fertilized in vitro and cultured singly in a defined medium,” Reprod. Fertil. Dev., 8:1199-1205 (1996). mBECM supplemented with 10% (v/v) FBS was used for co-culturing inseminated oocytes with CGC. Osmolarity of the medium was maintained within the range of 265-290 mOsm.
# All cumulus-oocyte complexes (COC) were collected in Madison, Wis. (BOMED, Inc.) and were shipped in 2 ml of maturation medium in a battery powered incubator via overnight express mail service. Oocytes matured during transit and arrived within 24 h after exposure to maturation medium, pre-equilibrated at 39° C. in 5% CO2 in air. At 22 to 24 h after exposure to the medium, the COCs were inseminated in vitro as described in J. Lim et al., “Intracytoplasmic glutathione concentration and the role of β-mercaptoethanol in preimplantation development of bovine embryos,” Theriogenology, 46:429-439 (1996). At 18 h post-insemination, COCs were cultured in groups (28-40 embryos) in a 4-well multidish (Nunc, Roskilde, Denmark) containing 0.8-ml of mBECM. Embryos were dislodged from CGC at 36 to 48 h post-insemination.
# In Example 9, IVF embryos were cultured in MBECM supplemented as follows: 1) no addition (control), 2) Hb (1 μg/ml), 3) Hb plus L-NAME (1 nM), and 4) Hb plus L-NAME (1000 nM). Embryonic development was evaluated up to 192 h post-insemination. A total of 384 oocytes were inseminated, and were randomly and equally allotted to 4 replicates.
# Embryos developed to the 2-cell, 8-cell, 16-cell, morula, and blastocyst stages at the pertinent observation times were individually scored ‘1’ (developed). Embryos that had not developed to these stages at the same times were scored ‘0’ (non-developed). Sums of the scores at each stage of development were evaluated by analysis of variance using a general linear model (PROC-GLM) in the SAS statistical programming package (1991). In Example 8, the combined effects of Hb addition and month of oocyte collection were first examined in a 2×7 factorial arrangement. Overall differences in embryonic development in Hb-free and Hb-containing culture systems were further evaluated. […] Differences were regarded as statistically significant where P values were less than 0.05.
substance,measurement,setting,value
hemoglobin [Hb],Number of embryos developed to 2-cell,"96 embryos, 48 h",68
same,Number of embryos developed to 8-cell,"96 embryos, 60 h",54
same,Number of embryos developed to 16-cell,"96 embryos, 120 h",47
same,Number of embryos developed to Morula,"96 embryos, 144 h",35
same,Number of embryos developed to Blastocyst,"96 embryos, 192 h",30
same,Least square mean of embryos developed to 2-cell,48 h,0.708
same,Least square mean of embryos developed to 8-cell,60 h,0.563
same,Least square mean of embryos developed to 16-cell,120 h,0.489
same,Least square mean of embryos developed to Morula,144 h,0.365
same,Least square mean of embryos developed to Blastocyst,192 h,0.312 and 0.313

# — patent US6864086B2, “Nitric oxide-scavenging system for culturing oocytes, embryos, or other cells” (Board of Supervisors of Louisiana State University and …, priority 1998, dated 2005)
